In paper PMC7797783, “Identification of Active Compounds From Yi Nationality Herbal Formula Wosi Influencing COX-2 and VCAM-1 Signaling” (Frontiers in Pharmacology, 2020):
Values joined by “and” are separate entries in the source; they are usually repeats but may differ in a detail not shown here. Identical values can stand only once.

Columns and labels:
hyperuricemia rats = test: Hyperuricemia rat model (adenine/dry yeast), uric acid in serum and urine; assay type: in vivo, Sprague-Dawley (SD) rats; conditions: oral, 5 days, Wosi 0.5, 1, 2 g/kg, vs model group
Description: The rats were divided into six groups, and each group comprised of 10 animals which were control, model, Benzbromarone (0.01 mg/kg), Wosi (0.5, 1, and 2 g/kg) groups. Briefly, 10% dry yeast solution of 1.25% adenine (10 ml/kg) was given orally administration for 15 consecutive days to induce the hyperuricemia in each animal except those of control groups. The solution of 0.5% CMC-Na was given to the control groups. On the 10th day, the Wosi and Benzbromarone were orally administered continuously 24 h 5 days. Normal saline was given to the control and model groups. Collecting 14th and 15th days of rat urine (24 h) and recording the volume. It was centrifuged at 3,500 g for 5 min to remove the precipitations. On the 15th day, rats were first anesthetized with pentobarbital sodium (i.p., 70 mg/kg body weight), 1 h after the final drug treatment. Then the blood sample was collected and centrifuged at 3000 g for 5 min to obtain the serum. Serum were kept under −20°C.
According to manufacturer’s instructions, using a standard diagnostic kit, was used in order to evaluate the concentration of uric acid concentration in serum and urine.

COX-1 = target: T1, COX-1 (Ovis aries, UniProt P05979); test: In vitro cyclooxygenase inhibition assay (colorimetric COX inhibitor screening kit, PGE2 synthesis), COX-1; assay type: biochemical; conditions: duplicate determinations; 0.01 to 550 μM
T1 construct: purchased Cayman Chemical Company 560131
T1 sequence (P05979 25-600): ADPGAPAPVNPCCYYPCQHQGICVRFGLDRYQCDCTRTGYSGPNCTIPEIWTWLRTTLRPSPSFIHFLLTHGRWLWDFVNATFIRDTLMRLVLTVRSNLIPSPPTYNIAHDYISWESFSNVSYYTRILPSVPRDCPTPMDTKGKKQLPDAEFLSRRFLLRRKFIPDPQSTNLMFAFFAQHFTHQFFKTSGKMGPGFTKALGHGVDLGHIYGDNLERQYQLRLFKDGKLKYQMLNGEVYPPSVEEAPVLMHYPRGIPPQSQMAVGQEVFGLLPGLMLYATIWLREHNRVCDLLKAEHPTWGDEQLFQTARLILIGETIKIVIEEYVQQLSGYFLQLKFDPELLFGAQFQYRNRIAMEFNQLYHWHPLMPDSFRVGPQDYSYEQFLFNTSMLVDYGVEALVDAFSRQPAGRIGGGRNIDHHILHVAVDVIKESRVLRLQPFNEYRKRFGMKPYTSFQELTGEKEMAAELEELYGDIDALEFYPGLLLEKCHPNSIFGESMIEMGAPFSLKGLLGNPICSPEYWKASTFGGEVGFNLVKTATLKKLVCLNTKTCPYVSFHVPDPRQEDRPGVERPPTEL

COX-2 = target: T2, COX-2 (Homo sapiens, UniProt P35354); test: In vitro cyclooxygenase inhibition assay (colorimetric COX inhibitor screening kit, PGE2 synthesis), COX-2; assay type: biochemical; conditions: for IC50: duplicate determinations, 0.01 to 550 μM; for COX-2/COX-1 selectivity ratio: ratio of IC50 values (μM)
T2 construct: purchased Cayman Chemical Company 560131
T2 sequence (P35354 18-604): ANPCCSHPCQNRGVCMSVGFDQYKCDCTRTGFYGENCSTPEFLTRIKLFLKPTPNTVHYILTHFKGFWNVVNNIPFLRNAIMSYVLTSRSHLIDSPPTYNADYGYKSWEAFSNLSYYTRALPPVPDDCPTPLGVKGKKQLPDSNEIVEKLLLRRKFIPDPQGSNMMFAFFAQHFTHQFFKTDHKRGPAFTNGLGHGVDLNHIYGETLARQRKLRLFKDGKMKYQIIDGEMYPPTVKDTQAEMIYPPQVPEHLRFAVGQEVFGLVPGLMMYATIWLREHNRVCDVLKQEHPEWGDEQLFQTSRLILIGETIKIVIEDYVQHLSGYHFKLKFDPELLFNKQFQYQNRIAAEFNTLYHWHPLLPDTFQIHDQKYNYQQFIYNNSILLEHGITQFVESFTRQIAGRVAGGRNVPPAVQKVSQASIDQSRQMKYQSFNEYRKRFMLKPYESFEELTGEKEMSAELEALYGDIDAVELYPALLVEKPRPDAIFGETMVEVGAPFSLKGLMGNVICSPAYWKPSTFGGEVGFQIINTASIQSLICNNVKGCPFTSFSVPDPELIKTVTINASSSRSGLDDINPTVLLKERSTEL

cyclooxygenase-2 = test system: cyclooxygenase-2; set-up: method as in Ringbom et al., 1998; conditions: ref Ringbom et al., 1998; cited from earlier work
[1] = test system: serum cytokines IL-6, IL-1β, IL-2, IL-10, IFN-γ; test: Serum inflammatory cytokines (ELISA) in MSU-induced rats; assay type: in vivo, Sprague-Dawley (SD) rats; conditions: oral 7 days, Wosi 0.5, 1, 2 g/kg, colchicine 0.2 mg/kg
Description: (§1) Rats were divided as aforementioned. Wosi at three doses (0.5, 1, and 2 g/kg) were orally administration once daily for 7 days in Wosi groups. Meanwhile, colchicine was orally administration once daily for 7 days in colchicine groups. The injection of the MSU crystal was performed on the fifth day for each animal except those of control groups. 0.9% sterile saline was given to the control group. On the seventh day, rats were first anesthetized with pentobarbital sodium (i.p., 70 mg/kg body weight) at 30 min after the last dosing, Blood samples were taken from rat femoral artery with heparinized needles which were allowed to clot for 1 h at room temperature and centrifuged at 3,000 g for 10 min to obtain serum. Serum samples were stored at −20°C until the ELISA testing, then rats were sacrificed by femoral artery exsanguination. Meanwhile, the ankle joint surrounding tissues were collected for the immunohistochemical analyze and frozen at −80°C.
The levels of interleukin 6 (IL-6), interleukin 1 beta, interleukin 2 (IL-2), interleukin 10 (IL-10), and interferon gamma (IFN-γ) in the serum were measured using ELISA kits according to manufacturer’s instructions.

[2] = test system: COX-2 and VCAM-1 protein expression; test: Immunohistochemistry of COX-2 and VCAM-1 protein in ankle joint synovial tissue of MSU-induced rats; assay type: in vivo, Sprague-Dawley (SD) rats; conditions: 7 days, colchicine 0.2 mg/kg
Description: as §1
The method of immunohistochemical staining for the ankle joint was as following the previous studies. Briefly, the sections were deparaffinized and […] by xylene and ethanol. […] Finally, the sections were washed with TBS three times, and antibody binding was detected using 3,3′-diaminobenzidine tetrahydrochloride (DAB). […] Stained sections were dehydrated and then each section was analyzed by microscope and image output system.

## CCc1oc2ccccc2c1C(=O)c1cc(Br)c(O)c(Br)c1 [benzbromarone, Benzbromarone]
Hyperuricemia rats
  serum level of uric acid: recovered to that of the normal animals
  urine uric acid excretion (24 h): recovered to that of the normal animals

## C[C@@H]1O[C@@H](O[C@@H]2[C@@H](O)[C@H](O[C@H]3CC[C@]4(C)[C@H]5CC=C6[C@@H]7CC(C)(C)CC[C@]7(C(=O)O)CC[C@@]6(C)[C@]5(C)CC[C@H]4C3(C)C)O[C@H](C(=O)O)[C@H]2O)[C@H](O)[C@H](O)[C@H]1O [Compound a, 3-O-[α-L-pyranrhamnose(1-3)-β-D-pyranglucuronic acid]-oleanolic acid]
COX-1
  IC50: 443 µM
COX-2
  IC50: 298 µM
  COX-2/COX-1 selectivity ratio: 0.67

## CC1(C)CC[C@]2(C(=O)O[C@@H]3O[C@H](CO)[C@@H](O)[C@H](O)[C@H]3O)CC[C@]3(C)C(=CC[C@@H]4[C@@]5(C)CC[C@H](O[C@@H]6O[C@H](C(=O)O)[C@@H](O)[C@H](O)[C@H]6O)C(C)(C)[C@@H]5CC[C@]43C)[C@@H]2C1 [Compound b, 3-O-(β-D-pyranglucuronic acid)-oleanolic acid-28-O-β-D-pyran glucoside]
COX-1
  IC50: 488 µM
COX-2
  IC50: 294 µM
  COX-2/COX-1 selectivity ratio: 0.60

## C[C@@H]1O[C@@H](O[C@@H]2[C@@H](O)[C@H](O[C@H]3CC[C@]4(C)[C@H]5CC=C6[C@@H]7CC(C)(C)CC[C@]7(C(=O)O[C@@H]7O[C@H](CO)[C@@H](O)[C@H](O)[C@H]7O)CC[C@@]6(C)[C@]5(C)CC[C@H]4C3(C)C)O[C@H](C(=O)O)[C@H]2O)[C@H](O)[C@H](O)[C@H]1O [Compound c, 3-O-[α-L-pyranrhamnose(1-3)-β-D-pyranglucuronic acid]-oleanolic acid-28-O-β-D-pyran glucoside]
COX-1
  IC50: 538 µM
COX-2
  IC50: 384 µM and 349 µM
  COX-2/COX-1 selectivity ratio: 0.65 and 0.64

## CC1(C)CC[C@]2(C(=O)O)CC[C@]3(C)C(=CC[C@@H]4[C@@]5(C)CC[C@H](O)C(C)(C)[C@@H]5CC[C@]43C)[C@@H]2C1 [oleanolic acid]
cyclooxygenase-2
  selectivity of inhibition of cyclooxygenase-2 catalyzed prostaglandin biosynthesis: selective inhibitors of cyclooxygenase-2 catalyzed prostaglandin biosynthesis

## C[C@H]1[C@H](C)CC[C@]2(C(=O)O)CC[C@]3(C)C(=CC[C@@H]4[C@@]5(C)CC[C@H](O)C(C)(C)[C@@H]5CC[C@]43C)[C@H]12 [ursolic acid]
cyclooxygenase-2
  selectivity of inhibition of cyclooxygenase-2 catalyzed prostaglandin biosynthesis: selective inhibitors of cyclooxygenase-2 catalyzed prostaglandin biosynthesis

## COc1cc2c(c(OC)c1OC)-c1ccc(OC)c(=O)cc1[C@@H](NC(C)=O)CC2 [colchicine, Colchicine]
[1]
  serum level of IFN-γ: inhibited IL-2, IL-1β, IL-6, and IFN-γ secretion
  serum level of IL-1β: inhibited IL-2, IL-1β, IL-6, and IFN-γ secretion
  serum level of IL-2: inhibited IL-2, IL-1β, IL-6, and IFN-γ secretion
  serum level of IL-6: inhibited IL-2, IL-1β, IL-6, and IFN-γ secretion
  serum level of IL-10: increased IL-10 secretion
[2]; Wosi 0.5, 1, 2 g/kg
  protein expression of VCAM-1 in synovial tissue (IHC, IOD): recovered to that of the normal animals
[2]; Wosi particularly at 0.5 and 2 g/kg/day
  protein expression of COX-2 in synovial tissue (IHC, IOD): recovered to that of the normal animals
